{"source": "paper PMC4632086", "about": "“Effects and possible mechanisms of action of acacetin on the behavior and eye morphology of Drosophila models of Alzheimer’s disease” (Scientific Reports, 2015)", "assay_type_in_all_cases": "in vivo, Drosophila melanogaster", "key": {"[1]": {"tested_on": "human BACE-1", "assay": "Western blot, BACE-1 protein in heads of elav < APP/BACE-1 flies", "details": "20-day-old males", "method": "(§1) The elav < APP/BACE-1 flies were cultured from the egg stage, as described previously. The lysates were obtained from the heads of 50 male flies (20 days old) by placing the heads in 100 μL RIPA buffer (pH 8.0) containing a 1% protease inhibitor cocktail. The controls received 0.1% DMSO. The lysates were centrifuged at 14,000 rpm for 30 min at 4 °C. The protein content of the supernatant was determined using a Bradford Protein Assay kit (Sigma-Aldrich) and BSA was used as the standard. The total proteins (30 μg/sample for APP and BACE-1 detection; 70 μg/sample for Aβ detection) were mixed with an equal volume of 5× sample buffer[81] containing 40 mM of DL-dithiothreitol, boiled for 10 min, and then loaded onto 8, 10, and 12% sodium dodecyl sulfate-polyacrylamide gels using a Mini-Protean 3 electrophoresis cell (Bio-Rad, Hercules, CA, USA) for APP, APP-CTF (APP-αCTF and APP-βCTF) and AICD, BACE-1, and Aβ detection, respectively. After electrophoresis at 110 V in 2 h, the proteins from the gels were transferred onto a polyvinyl difluoride membrane (Pall Corporation, Pensacola, FL, USA) using an electroblotting apparatus. The membrane was then blocked with 5% skim milk (BD Difco, Flanklin Lakes, NJ, USA) in PBS containing 0.1% (v/v) Tween-20 (0.1% PBS-T) at room temperature for 1 h, and further incubated overnight at 4 °C with a 1:4,000 dilution of an anti-APP C-terminal antibody to detect the cleaved APP product, a 1:1,000 dilution of anti-BACE-1, and a 1:1,000 dilution of anti-amyloid (4G8). After washing with 0.1% PBS-T three times at 10 min intervals, the membranes were further incubated for 2 h with a goat anti-rabbit IgG H&L (HRP) secondary antibody at a1:4,000 dilution for APP and BACE-1 and a goat anti-mouse lgG-HRP at a 1:5,000 dilution for β-amyloid. […] The differences in protein expression were quantified using a Molecular Imager Gel Doc XR system (Bio-Rad, Hercules, CA, USA) and normalized to actin expression on the same membrane. The results are expressed as the means ± SEs of duplicate samples from three independent experiments."}, "[2]": {"tested_on": "GMR < APP/BACE-1 flies", "assay": "Cason's trichrome staining of eye sections (photoreceptor degeneration)", "details": "100, 300, and 500 μM; 5- and 15-day-old males", "method": "Cason’s trichrome staining was performed, as described by Wang et al.[33] and Perumalsamy et al.[77]. Briefly, the heads of 5- and 15-day-old male GMR < APP/BACE-1 flies, cultured in vials as stated previously, were fixed in a 4% paraformaldehyde buffer solution (pH 7.4) overnight at 4 °C, and paraffin-embedded preparations of the fly heads were then sectioned at 10 μm thickness using a HM 340E rotary microtome (Thermo Scientific Microm, Walldorf, Germany). The sections were dried at 40 °C overnight, subsequently deparaffinized with CitriSolv (Fisher Scientific, Fair Lawn, NJ, USA), and rehydrated using a series of ethanol solutions in phosphate-buffered saline (PBS). The rehydrated paraffin sections were soaked in Carson’s trichrome solution for 15 min, and the slides were gently swashed in tap water and subsequently rinsed three times in distilled water (DW). The excess water was removed with tissue paper, and the samples were mounted using Vectashield H-1000 mounting medium (Vector Laboratories, Burlingame, CA, USA)."}, "[3]": {"tested_on": "Aβ", "assay": "Western blot, Aβ in heads of elav < APP/BACE-1 flies", "details": "20-day-old males", "method": "as §1"}, "[4]": {"tested_on": "GMR < APP/BACE-1 flies", "assay": "Congo red staining of amyloid plaques in compound eyes", "details": "5- and 15-day-old flies", "method": "Congo red staining was performed to detect the amyloid plaques in the Drosophila AD model. The paraffin-embedded sections described above were deparaffinized and then stained using NovaUltra Special Stain Kits (IHC World, Woodstock, MD, USA) according to the manufacturer’s instructions. Finally, the sections were dehydrated and mounted with mounting medium. The images were observed and captured using an EZ4 HD stereo microscope."}, "[5]": {"tested_on": "APP intracellular domain (AICD)", "assay": "Western blot, AICD in heads of elav < APP/BACE-1 flies", "details": "20-day-old males", "method": "as §1"}, "[6]": {"tested_on": "elav < APP/BACE-1 flies", "assay": "Feeding assay (Acid red intake)", "details": "100, 300, and 500 μM; males; 2 h feeding", "method": "The adult feeding assay was performed according to the methods of Wang et al.[33] and Bahadorani et al.[79]. Groups of 15 newly emerged male elav < APP/BACE-1 flies were cultured on standard media for 3 days and then starved for 20 h in vials containing three layers of Whatman no. 2 filter paper (Whatman, Maidstone, UK) soaked in DW. The flies were then transferred into vials containing media (with 0.2% Acid red) supplemented with acacetin (100, 300, and 500 μM) in 0.1% DMSO. The controls were fed with media supplemented with 0.2% Acid red and 0.1% DMSO. After 2 h of feeding, the abdomens were isolated and homogenized in 1 mL DW. After centrifugation (5000 rpm, 25 °C, 5 min), the optical density (OD) of the supernatant was measured at 505 nm, because this OD value is considered to index the amount of food intake by flies, as described by Min and Tatar[80]. All treatments were repeated three times using 15 males per replicate."}}, "data": [{"molecule": "COc1ccc(-c2cc(=O)c3c(O)cc(O)cc3o2)cc1", "note": "[acacetin]", "values": [{"measurement": "BACE-1 protein levels, % of the control levels", "setting": "[1]; 100 μM", "value": 81, "unit": "%"}, {"measurement": "BACE-1 protein levels, % of the control levels", "setting": "[1]; 300 μM", "value": 75, "unit": "%"}, {"measurement": "BACE-1 protein levels, % of the control levels", "setting": "[1]; 500 μM", "value": 74, "unit": "%"}, {"measurement": "photoreceptor degeneration", "setting": "[2]", "value": "partially suppressed the photoreceptor degeneration"}, {"measurement": "Aβ levels, % of the controls", "setting": "[3]; 100 μM", "value": 71, "unit": "%"}, {"measurement": "Aβ levels, % of the controls", "setting": "[3]; 300 μM", "value": 72, "unit": "%"}, {"measurement": "Aβ levels, % of the controls", "setting": "[3]; 500 μM", "value": 47, "unit": "%"}, {"measurement": "amyloid plaque deposits", "setting": "[4]; 500 μM", "value": "a few amyloid plaque deposits were also detected"}, {"measurement": "number of amyloid deposits", "setting": "[4]; 100 and 300 μM", "value": "significantly suppressed the number of amyloid deposits"}, {"measurement": "AICD levels, % of the control levels", "setting": "[5]; 100 μM", "value": 68, "unit": "%"}, {"measurement": "AICD levels, % of the control levels", "setting": "[5]; 300 μM", "value": 27, "unit": "%"}, {"measurement": "AICD levels, % of the control levels", "setting": "[5]; 500 μM", "value": 37, "unit": "%"}, {"measurement": "feeding (food intake)", "setting": "[6]", "value": "did not significantly affect feeding"}]}]}
